Results reported in ChEMBL document CHEMBL3507680, “University of Dundee, Gates Library screen for HepG2 cell viability”.

Test: Human HepG2 cell viability assay in 384 well format
Type: toxicity, cell-based
Design: dose 125 nL, time 70.5 hour; concentration not given beside the values
Conditions: HepG2 cells, read-out: Inhibition

Structure (SMILES) | cytotoxicity at 70.5 h [%]
FC(F)Oc1ccc(NCc2nc(C3CC3)no2)c(OC(F)F)c1 | 1.35
CCOCC1CCN(C(=O)Nc2ccc3c(c2)CCCN3C)C1 (centres undefined) | -10.4
CC(C)(C)CCN1CCN(Cn2nccc2-c2cccnc2)CC1 | 0.907
CCc1nccn1CCCNC(=O)CN1CCN(c2ncccn2)CC1 | -7.13
O=C(c1ccn(-c2ccc(F)cc2)n1)N(CCO)Cc1cccnc1 | 15.5
O=c1[nH]nc(CNc2ncc(Br)cn2)[nH]1 | -2.47
CCC(CNC(=O)c1cc(OC)ccc1Br)N1CCc2ccccc2C1 (centres undefined) | 7.55
Cc1nc2c(c(NCC(c3cccnc3)N3CCOCC3)n1)CCNC2 (centres undefined) | -15.5
Cc1ccc2oc(N3CCN(CC(=O)NC(C)C)CC3)nc2c1 | 10.6
O=C(NCc1ccco1)[C@@H]1CC[C@@H]2[C@@H](CCN2Cc2ccc(F)cc2)O1 | -5.82
CC(C)c1nnc(C2CCN(CC(=O)Nc3cccnc3)CC2)o1 | -5.94
CNc1nc(C2CCCN2)nc2c1CCN(S(=O)(=O)C1CCCCC1)C2 (centres undefined) | 12.5
NC(=O)NC(=O)C(c1ccccc1)N1CCN(Cc2ccccc2)CC1 (centres undefined) | 1.22
CC(C)(C)c1oc(C(N)=O)cc1CN1CCOC(C(F)(F)F)C1 (centres undefined) | 1.68
Cc1nc(CNC(=O)NC2CCN(c3ncccc3Cl)C2)no1 (centres undefined) | -3.51
O=C(C1CC1)N1C[C@H]2CNC[C@@]2(C(=O)NCCCc2ccccc2)C1 | -1.55
CCCC1(CO)CCCN(Cc2nccs2)C1 (centres undefined) | -4.2
Cc1cnn(CC2CCCN2Cc2noc(C(C)(C)C)n2)c1 (centres undefined) | -2.54
CCC(=O)N1CSCC1C(=O)Nc1ccccc1-c1cccs1 (centres undefined) | -9.09
Cn1cc(C(NCc2ccc(F)cc2)c2cccc(F)c2)cn1 (centres undefined) | -13.5
CSC(C)C(=O)N1CCC(Oc2cc(C)ccc2F)(C(=O)O)CC1 (centres undefined) | -7.76
O=C(C1CC1)N1CC[C@H](c2nc3ccccc3o2)C1 | 5.84
OCC1(Cc2ccccc2F)CCCN(c2ccc3ccccc3n2)C1 (centres undefined) | -1.23

Structure (SMILES) | cytotoxicity at 70.5 h [%]
Oc1ccccc1-c1cc(-c2nc(C3CC3)n[nH]2)[nH]n1 | -6.44
Cc1cnn(CC(C)NCc2c(C)nn(Cc3ccccc3)c2C)c1 (centres undefined) | -4.31
O=C(NCCSc1cnn[nH]1)c1c[nH]nc1C1CCCCC1 | 1.5
CCOC(=O)C1(Cc2cccc(Cl)c2)CCCN(Cc2ncc[nH]2)C1 (centres undefined) | 0.345
CCN(CCC#N)Cn1ncc2cn(-c3ccccc3)nc2c1=O | -2.4
CC(Cc1c(F)cccc1F)NC(=O)CN(CC(N)=O)C(C)C (centres undefined) | -2.04
Cn1ccnc1CN1CCCN(C(=O)C2(C#N)CCCCC2)CC1 | 1.4
CN(C)C(=O)Cc1ccc(NC(=O)c2cn(C)nn2)cc1 | -4.9
O=C(Cn1cc(Cl)cn1)N1CCCC(c2ccn[nH]2)C1 (centres undefined) | -7.33
C=C(C)CN(CC)C(=O)c1cc(F)ccc1NS(C)(=O)=O | -0.0565
CCOCCNC(=O)c1cccnc1Sc1cc(OC)ccc1OC | 15.5
CC(CNC(=O)c1cccc(-n2cccn2)n1)Cn1ccnc1 (centres undefined) | -2.98
CC(=O)N1CCCC1c1nnn2cc(Nc3ccccc3)ccc12 (centres undefined) | -5.52
O=C(c1ccc(C(F)(F)F)cc1)C1CCCN(C(=O)Cn2cnnn2)C1 (centres undefined) | -15.3
COc1cccc(CN2CCOC(Cn3nc(C)cc3C)C2)c1 (centres undefined) | -6.54
N#Cc1nc(COc2ccc3c(c2)OCO3)oc1NC1CCCCC1 | -28.5
Cn1cc(CN2CCC3(CCCN3Cc3cccnc3)CC2)cn1 | -3.83
O=C(c1ccc(-c2cn[nH]c2)nc1)N1CCC(N2CCOCC2)CC1 | -3.67
NC(=O)CN1CCC(C(=O)NCCn2cc(Cl)cn2)CC1 | 3.62
Cc1ncc2c(n1)CN(CC(=O)NCCOc1ccccc1)CC2 | -11.5
Cc1cc(O)c(OCC(=O)Nc2nc3c(s2)CCCCC3)cn1 | -1.73
CC(C)n1ccnc1CN1CCCN(C(=O)CN(C)C2CC2)CC1 | -5.01
O=C1c2cnc(N3CCOCC3)nc2CN1Cc1cccc(F)c1 | -6.18

Structure (SMILES) | cytotoxicity at 70.5 h [%]
CCOc1ccc(-c2ccnc(CC)n2)cc1C(=O)O | -7.1
Cc1cnn(CC2CCCN2Cc2nc3ccccc3nc2C)c1 (centres undefined) | -7.74
Cc1cc(CSC2CCCN(c3cnn(C)c3)C2=O)no1 (centres undefined) | -3.62
Cc1c(F)cccc1S(=O)(=O)NC(C)(C)CN | -3.29
CN(Cc1cn2c(n1)CN(C(=O)c1cccn1C)CC2)Cc1ccco1 | 9.36
O=C(c1ccnnc1)N1CC[C@]2(C[C@H](Oc3ncccc3F)CO2)C1 | -5.53
COc1cc2cc(C(=O)NCC(=O)O)n(C)c2c(OC)c1OC | 31.9
CO[C@@H]1CCN(Cc2nccs2)C[C@@H]1Cc1ccccc1 | -11.2
C[S+](C)[c-]1c(=O)[nH]c(=O)n(CCc2ccc(F)cc2)c1=O | -2.07
O=C(Cn1cnc(-c2ccccc2)cc1=O)Nc1ccncc1 | -9.96
CN1CCOC(CNC(=O)CCCOCCc2ccccc2)C1 (centres undefined) | -14.2
CSc1nnc(C2CCN(C(=O)N3CCOCC3)CC2)n1C(C)C | 7.97
O=C(NCCCn1cccn1)N1CCCC1c1ccsc1 (centres undefined) | -9.1
COCCNC(=O)Cn1cc(OCc2ccccc2)c(=O)cc1CO | -15.3
Cc1cnn(CC2CCCN2CC(=O)NCc2ccccn2)c1 (centres undefined) | -3.32
Cc1n[nH]c(C)c1CNC(=O)N1CCCC(Cc2nccn2C)C1 (centres undefined) | 0.74
Cc1noc(NCc2cn(C)nc2-c2cccnc2)n1 | -12.1
CNc1ccc(C(=O)N(C)Cc2ccc3ccccc3n2)cn1 | -8.44
O=C(C1CN(Cc2ccoc2)CC12CCOCC2)N1CCCC1 (centres undefined) | 7.01
c1ccc(COC[C@@H]2CC[C@H]3[C@H](CCN3c3ncccn3)O2)nc1 | -9.8
O=C(NCCNc1cnccn1)c1scnc1Cl | -8.29
Cc1cccc(CN2C[C@@H]3OCCN(c4cnccn4)[C@@H]3C2)n1 | -4.63
Cc1ccc(C(C)NC(=O)N2CCCN(CC(F)F)CC2)s1 (centres undefined) | -2.75

Structure (SMILES) | cytotoxicity at 70.5 h [%]
O=C(NC(C1CC1)C1CC1)c1cccc[n+]1[O-] | -2.48
Cc1nc2cc(=O)[nH]n2c(C)c1CC(=O)NCc1ccoc1 | -1.36
CO[C@H]1CCN(S(=O)(=O)N(C)C)[C@@H]2CN(Cc3cccnc3)C[C@H]12 | -5.31
O=C(COc1cccc(F)c1)N1CCCCC1c1ccn2ccnc2n1 (centres undefined) | -9.3
CN1CCCN(CC(CC(=O)Nc2ccc(Cl)cc2)C(=O)O)CC1 (centres undefined) | -6.04
Cc1ccc2nc(CN3CCC(O)(Cn4ccnc4)CC3)cc(O)c2c1 | -7.59
O=C1CCCc2occ(C(=O)N3CCCC(O)(CO)C3)c21 (centres undefined) | 31
CC(=O)c1ccc(NC(=O)c2ccc3c(c2)C2(CCCCC2)CN3)cc1 | -9.32
Cc1cc(N2CCC3(CCCN(CCO)C3=O)C2)nc(C)c1C#N (centres undefined) | -18.8
COc1cccc(CN2CCCCCC2c2cccc(F)c2)c1O (centres undefined) | -1.29
CCc1cccc(OCCN(C)C(=O)c2ccccc2NCC(=O)O)c1 | -13.6
O=C(COC1CCCC1)N1CCCC1c1noc(C2CC2)n1 (centres undefined) | -9.93
O=C(NCCCn1cncn1)N1CCCCCC1 | 1.12
CC(C)c1nc(COc2cccc3c2NC(=O)CO3)cs1 | 13.8
O=C(NCCNc1ncccn1)NCCSC(F)(F)F | -10.7
CN(C)Cc1nnc2n1CCN(c1cnccn1)CC2 | 0.405
CC(NCCN1CCC(N(C)C)CC1)c1ccc(Cl)s1 (centres undefined) | 14.9
Cc1ccncc1C(=O)N1CCCC(C(=O)CCc2ccccc2)C1 (centres undefined) | -7.97
CN(Cc1nnc(C2CC2)o1)C(c1ccc(F)cc1)c1cccnc1 (centres undefined) | 0.0755
COCCC1(C(=O)O)CCCN(Cc2ccccc2OCCO)C1 (centres undefined) | -8.44
CCC[C@@H]1CN(Cc2ccccc2-c2ccco2)C[C@H]1NC(C)=O | -5.42
O=C(O)c1cc2c(nc1NCC1CC1)CCN(C1CCOC1)CC2 (centres undefined) | -4.26
O=C(NC1(c2nnn(CCO)n2)CCCC1)c1ccccc1 | -1.16

Structure (SMILES) | cytotoxicity at 70.5 h [%]
CC(C)n1nc(CN2CCCC2=O)c2c1CN(C(=O)c1ccc[nH]1)C2 | -5.63
CNC(=O)[C@@H](C1CCCCC1)N1CCC[C@H]1C(=O)NC1CC1 | -20.1
CN(C)S(=O)(=O)c1ccc(-c2nc(C#N)c(NC(C)(C)C)o2)o1 | -8.34
CC(C)(CNC(=O)c1ccco1)CNC(=O)c1ccco1 | -1.35
COc1ccc(Cl)cc1-n1c(COC(C)C)n[nH]c1=O | -9.9
CN(Cc1cccnc1)C[C@H]1CC[C@@H](Cc2ccc3c(cnn3C)c2)O1 | -10.4
CCOc1cc(C)nc(N2CCN(Cc3nccn3C)CC2)n1 | -0.961
O=C(Nc1ccc(-n2cccn2)cc1)N1CCC(O)C1 (centres undefined) | 28.4
Cc1cccnc1CC(C)Nc1nc(N)nc2c1CCNC2 (centres undefined) | 2.93
Cc1noc(C)c1CNC[C@@]1(COc2cccnc2)C[C@@H](O)[C@@H](O)C1 | -8.56
CCN(Cc1ccc(C(C)=O)cc1)CC1CCOCC1 | 20.6
Cn1nc(-c2ccccc2)c(Cl)c1C(=O)O | -25.8
Cc1ncsc1CN1C[C@H](OCc2ccncc2)[C@H]2OCCC[C@H]21 | -8.48
CN(CC(F)(F)F)C(=O)CNC(=O)Cc1ccccc1O | 5.05
Cc1cc(C(=O)Nc2cnn(CC(F)(F)F)c2)nc(N2CCOCC2)n1 | -13.4
Cn1c2ccccc2c2ncn(CCCN3CCOCC3)c(=O)c21 | 12.2
CCCn1cc(C(=O)NCCc2ccncc2)c(C)n1 | -6.81
CN(Cc1ccc(N2CCOCC2)cc1)Cc1noc(C(C)(C)C)n1 | 7.66
Nc1ncc(C(=O)N2CCCC(N)CC2)c(-c2ccccc2)n1 (centres undefined) | 7.49
Cc1cccc(CN2CC[C@@H]3[C@@H]2CCN3C(=O)c2cc(C)on2)n1 | -12.4
COCc1ncc(CN2CCC(Oc3ccccc3C)CC2)cn1 | -16.4
NC(=O)C1CCN(C(=O)c2cc(Br)ccc2-n2cnnn2)CC1 | 27.7
